Reference: PubChem BioAssay AID248 (DTP/NCI, 2004)
Several values for one entry are separate records, joined by “and”; a condition that tells them apart may be missing. Equal entries are not always repeated. Toxic doses and inconclusive results are not listed. Rule as the data show it: active = T/C of 150% or more; inactive = T/C below 125%.

Tested on: L1210 leukemia ip in BDF1 mice, survival T/C
Assay: NCI In Vivo Anticancer Drug Screen. Data for tumor model L1210 Leukemia (intraperitoneal) in B6D2F1 (BDF1) mice
Settings: higher = longer survival
In short: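 Mice bearing the transplanted tumor received compound or vehicle. Survival of the treated group was divided by that of the vehicle-treated control group to give the ratio.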

Measured: T/C

CN(C)c1nc(N(C)C)nc(N(C)C)n1
inactive: endpoint: mean survival time, dose: 2.5 mg/kg/injection, schedule: Q03HX040 (ip), vehicle: acetone 103 % of control | endpoint: mean survival time, dose: 4.8 mg/kg/injection, schedule: Q01DX Z (ip), vehicle: other 94 % of control | endpoint: mean survival time, dose: 5.0 mg/kg/injection, schedule: Q03HX040 (ip), vehicle: acetone 108 % of control | endpoint: mean survival time, dose: 5.0 mg/kg/injection, schedule: Q06HX020 (ip), vehicle: acetone 110 % of control | endpoint: mean survival time, dose: 5.5 mg/kg/injection, schedule: Q01DX009 (ip), vehicle: saline with Tween-80 104 % of control and 116 % of control | endpoint: mean survival time, dose: 8.5 mg/kg/injection, schedule: Q04DX002 (ip), vehicle: saline with Tween-80 93 % of control and 96 % of control | endpoint: mean survival time, dose: 9.4 mg/kg/injection, schedule: Q01DX009 (ip), vehicle: saline with Tween-80 92 % of control | endpoint: mean survival time, dose: 9.4 mg/kg/injection, schedule: Q01DX010 (ip), vehicle: saline 88 % of control and 92 % of control | endpoint: mean survival time, dose: 9.5 mg/kg/injection, schedule: Q01DX Z (ip), vehicle: other 100 % of control | endpoint: mean survival time, dose: 10.0 mg/kg/injection, schedule: Q03HX040 (ip), vehicle: acetone 106 % of control | endpoint: mean survival time, dose: 10.0 mg/kg/injection, schedule: Q06HX020 (ip), vehicle: acetone 110 % of control | endpoint: mean survival time, dose: 10.0 mg/kg/injection, schedule: Q12HX010 (ip), vehicle: acetone 100 % of control | endpoint: mean survival time, dose: 11.0 mg/kg/injection, schedule: Q01DX009 (ip), vehicle: saline with Tween-80 110 % of control and 118 % of control | endpoint: mean survival time, dose: 12.5 mg/kg/injection, schedule: Q01DX009 (ip), vehicle: saline with Tween-80 108 % of control | endpoint: mean survival time, dose: 17.0 mg/kg/injection, schedule: Q04DX002 (ip), vehicle: saline with Tween-80 100 % of control and 105 % of control | endpoint: mean survival time, dose: 18.8 mg/kg/injection, schedule: Q01DX009 (ip), vehicle: saline with Tween-80 103 % of control | endpoint: mean survival time, dose: 18.8 mg/kg/injection, schedule: Q01DX009 (ip), vehicle: saline 95 % of control and 92 % of control | endpoint: mean survival time, dose: 18.8 mg/kg/injection, schedule: Q01DX010 (ip), vehicle: saline 90 % of control and 91 % of control | endpoint: mean survival time, dose: 19.0 mg/kg/injection, schedule: Q01DX Z (ip), vehicle: other 101 % of control | endpoint: mean survival time, dose: 20.0 mg/kg/injection, schedule: Q01DX005 (ip), vehicle: acetone 101 % of control and 103 % of control | endpoint: mean survival time, dose: 20.0 mg/kg/injection, schedule: Q01DX009 (ip), vehicle: Klucel (hydroxypropylcellulose) (HPC) 99 % of control | endpoint: mean survival time, dose: 20.0 mg/kg/injection, schedule: Q01DX009 (ip), vehicle: saline with Tween-80 100 % of control | endpoint: mean survival time, dose: 20.0 mg/kg/injection, schedule: Q03HX040 (ip), vehicle: acetone 107 % of control | endpoint: mean survival time, dose: 20.0 mg/kg/injection, schedule: Q06HX020 (ip), vehicle: acetone 106 % of control | endpoint: mean survival time, dose: 20.0 mg/kg/injection, schedule: Q12HX010 (ip), vehicle: acetone 104 % of control | endpoint: mean survival time, dose: 25.0 mg/kg/injection, schedule: Q01DX009 (ip), vehicle: saline with Tween-80 98 % of control | endpoint: mean survival time, dose: 30.0 mg/kg/injection, schedule: Q03HX040 (ip), vehicle: saline 110 % of control | endpoint: mean survival time, dose: 34.0 mg/kg/injection, schedule: Q04DX002 (ip), vehicle: saline with Tween-80 100 % of control and 101 % of control | endpoint: mean survival time, dose: 37.5 mg/kg/injection, schedule: Q01DX009 (ip), vehicle: saline with Tween-80 98 % of control | endpoint: mean survival time, dose: 37.5 mg/kg/injection, schedule: Q01DX009 (ip), vehicle: saline 94 % of control and 95 % of control | endpoint: mean survival time, dose: 37.5 mg/kg/injection, schedule: Q01DX010 (ip), vehicle: saline 95 % of control and 91 % of control | endpoint: mean survival time, dose: 38.0 mg/kg/injection, schedule: Q01DX Z (ip), vehicle: other 96 % of control | endpoint: mean survival time, dose: 40.0 mg/kg/injection, schedule: Q01DX005 (ip), vehicle: acetone 100 % of control and 110 % of control | endpoint: mean survival time, dose: 40.0 mg/kg/injection, schedule: Q01DX009 (ip), vehicle: Klucel (hydroxypropylcellulose) (HPC) 101 % of control | endpoint: mean survival time, dose: 40.0 mg/kg/injection, schedule: Q01DX009 (ip), vehicle: saline with Tween-80 101 % of control | endpoint: mean survival time, dose: 40.0 mg/kg/injection, schedule: Q06HX020 (ip), vehicle: acetone 118 % of control | endpoint: mean survival time, dose: 40.0 mg/kg/injection, schedule: Q12HX010 (ip), vehicle: acetone 107 % of control | endpoint: mean survival time, dose: 50.0 mg/kg/injection, schedule: Q01DX001 (ip), vehicle: saline with Tween-80 97 % of control | endpoint: mean survival time, dose: 50.0 mg/kg/injection, schedule: Q01DX009 (ip), vehicle: saline with Tween-80 107 % of control | endpoint: mean survival time, dose: 50.0 mg/kg/injection, schedule: Q12HX010 (ip), vehicle: saline 96 % of control | endpoint: mean survival time, dose: 68.0 mg/kg/injection, schedule: Q04DX002 (ip), vehicle: saline with Tween-80 104 % of control and 105 % of control | endpoint: mean survival time, dose: 75.0 mg/kg/injection, schedule: Q01DX009 (ip), vehicle: saline with Tween-80 111 % of control | endpoint: mean survival time, dose: 75.0 mg/kg/injection, schedule: Q01DX009 (ip), vehicle: saline 94 % of control and 91 % of control | endpoint: mean survival time, dose: 75.0 mg/kg/injection, schedule: Q01DX010 (ip), vehicle: saline 98 % of control and 92 % of control | endpoint: mean survival time, dose: 80.0 mg/kg/injection, schedule: Q01DX005 (ip), vehicle: acetone 104 % of control and 106 % of control | endpoint: mean survival time, dose: 80.0 mg/kg/injection, schedule: Q01DX009 (ip), vehicle: Klucel (hydroxypropylcellulose) (HPC) 100 % of control | endpoint: mean survival time, dose: 80.0 mg/kg/injection, schedule: Q01DX009 (ip), vehicle: saline with Tween-80 105 % of control | endpoint: mean survival time, dose: 80.0 mg/kg/injection, schedule: Q12HX010 (ip), vehicle: acetone 115 % of control | endpoint: mean survival time, dose: 85.0 mg/kg/injection, schedule: Q01DX001 (ip), vehicle: other 94 % of control | endpoint: mean survival time, dose: 100.0 mg/kg/injection, schedule: Q01DX001 (ip), vehicle: saline with Tween-80 98 % of control | endpoint: mean survival time, dose: 100.0 mg/kg/injection, schedule: Q01DX009 (ip), vehicle: saline with Tween-80 97 % of control | endpoint: mean survival time, dose: 100.0 mg/kg/injection, schedule: Q12HX010 (ip), vehicle: saline 98 % of control | endpoint: mean survival time, dose: 125.0 mg/kg/injection, schedule: Q01DX001 (ip), vehicle: other 109 % of control | endpoint: mean survival time, dose: 130.0 mg/kg/injection, schedule: Q01DX001 (ip), vehicle: other 101 % of control | endpoint: mean survival time, dose: 136.0 mg/kg/injection, schedule: Q04DX002 (ip), vehicle: saline with Tween-80 96 % of control and 98 % of control | endpoint: mean survival time, dose: 150.0 mg/kg/injection, schedule: Q01DX009 (ip), vehicle: saline with Tween-80 124 % of control | endpoint: mean survival time, dose: 150.0 mg/kg/injection, schedule: Q01DX009 (ip), vehicle: saline 93 % of control and 102 % of control | endpoint: mean survival time, dose: 160.0 mg/kg/injection, schedule: Q01DX009 (ip), vehicle: Klucel (hydroxypropylcellulose) (HPC) 107 % of control and 87 % of control | endpoint: mean survival time, dose: 160.0 mg/kg/injection, schedule: Q01DX009 (ip), vehicle: saline with Tween-80 109 % of control | endpoint: mean survival time, dose: 195.0 mg/kg/injection, schedule: Q01DX001 (ip), vehicle: other 94 % of control | endpoint: mean survival time, dose: 200.0 mg/kg/injection, schedule: Q01DX001 (ip), vehicle: saline with Tween-80 101 % of control | endpoint: mean survival time, dose: 200.0 mg/kg/injection, schedule: Q01DX009 (ip), vehicle: saline with Tween-80 124 % of control | endpoint: mean survival time, dose: 240.0 mg/kg/injection, schedule: Q01DX009 (ip), vehicle: Klucel (hydroxypropylcellulose) (HPC) 86 % of control | endpoint: mean survival time, dose: 250.0 mg/kg/injection, schedule: Q01DX001 (ip), vehicle: other 100 % of control | endpoint: mean survival time, dose: 272.0 mg/kg/injection, schedule: Q04DX002 (ip), vehicle: saline with Tween-80 100 % of control and 105 % of control | endpoint: mean survival time, dose: 400.0 mg/kg/injection, schedule: Q01DX001 (ip), vehicle: saline with Tween-80 98 % of control | endpoint: mean survival time, dose: 500.0 mg/kg/injection, schedule: Q01DX001 (ip), vehicle: other 112 % of control | endpoint: median survival time, dose: 18.8 mg/kg/injection, schedule: Q01DX009 (ip), vehicle: saline 100 % of control and 114 % of control | endpoint: median survival time, dose: 37.5 mg/kg/injection, schedule: Q01DX009 (ip), vehicle: saline 100 % of control and 114 % of control | endpoint: median survival time, dose: 75.0 mg/kg/injection, schedule: Q01DX009 (ip), vehicle: saline 100 % of control and 111 % of control | endpoint: median survival time, dose: 150.0 mg/kg/injection, schedule: Q01DX009 (ip), vehicle: saline 111 % of control and 121 % of control
